Patent US20040229791A1, “Compositions and methods of modulating TGF-beta activity by fatty acids” (priority 2002, published 2004)

Tests used:
[1] = target: T1, 125I-TGF-β isoform-α2M* complexes (Homo sapiens, UniProt P01023); assay: Complex formation of 125I-TGF-β isoforms and α2M* by DSS cross-linking and 7.5% SDS-PAGE; assay type: binding; settings: DSS cross-linking, effective concentrations comparable to non-denaturing PAGE
T1 construct: was purified from pooled citrate-treate human plasma; from tissue; host or cells: pooled citrate-treated human plasma
T1 sequence (P01023 24-1474): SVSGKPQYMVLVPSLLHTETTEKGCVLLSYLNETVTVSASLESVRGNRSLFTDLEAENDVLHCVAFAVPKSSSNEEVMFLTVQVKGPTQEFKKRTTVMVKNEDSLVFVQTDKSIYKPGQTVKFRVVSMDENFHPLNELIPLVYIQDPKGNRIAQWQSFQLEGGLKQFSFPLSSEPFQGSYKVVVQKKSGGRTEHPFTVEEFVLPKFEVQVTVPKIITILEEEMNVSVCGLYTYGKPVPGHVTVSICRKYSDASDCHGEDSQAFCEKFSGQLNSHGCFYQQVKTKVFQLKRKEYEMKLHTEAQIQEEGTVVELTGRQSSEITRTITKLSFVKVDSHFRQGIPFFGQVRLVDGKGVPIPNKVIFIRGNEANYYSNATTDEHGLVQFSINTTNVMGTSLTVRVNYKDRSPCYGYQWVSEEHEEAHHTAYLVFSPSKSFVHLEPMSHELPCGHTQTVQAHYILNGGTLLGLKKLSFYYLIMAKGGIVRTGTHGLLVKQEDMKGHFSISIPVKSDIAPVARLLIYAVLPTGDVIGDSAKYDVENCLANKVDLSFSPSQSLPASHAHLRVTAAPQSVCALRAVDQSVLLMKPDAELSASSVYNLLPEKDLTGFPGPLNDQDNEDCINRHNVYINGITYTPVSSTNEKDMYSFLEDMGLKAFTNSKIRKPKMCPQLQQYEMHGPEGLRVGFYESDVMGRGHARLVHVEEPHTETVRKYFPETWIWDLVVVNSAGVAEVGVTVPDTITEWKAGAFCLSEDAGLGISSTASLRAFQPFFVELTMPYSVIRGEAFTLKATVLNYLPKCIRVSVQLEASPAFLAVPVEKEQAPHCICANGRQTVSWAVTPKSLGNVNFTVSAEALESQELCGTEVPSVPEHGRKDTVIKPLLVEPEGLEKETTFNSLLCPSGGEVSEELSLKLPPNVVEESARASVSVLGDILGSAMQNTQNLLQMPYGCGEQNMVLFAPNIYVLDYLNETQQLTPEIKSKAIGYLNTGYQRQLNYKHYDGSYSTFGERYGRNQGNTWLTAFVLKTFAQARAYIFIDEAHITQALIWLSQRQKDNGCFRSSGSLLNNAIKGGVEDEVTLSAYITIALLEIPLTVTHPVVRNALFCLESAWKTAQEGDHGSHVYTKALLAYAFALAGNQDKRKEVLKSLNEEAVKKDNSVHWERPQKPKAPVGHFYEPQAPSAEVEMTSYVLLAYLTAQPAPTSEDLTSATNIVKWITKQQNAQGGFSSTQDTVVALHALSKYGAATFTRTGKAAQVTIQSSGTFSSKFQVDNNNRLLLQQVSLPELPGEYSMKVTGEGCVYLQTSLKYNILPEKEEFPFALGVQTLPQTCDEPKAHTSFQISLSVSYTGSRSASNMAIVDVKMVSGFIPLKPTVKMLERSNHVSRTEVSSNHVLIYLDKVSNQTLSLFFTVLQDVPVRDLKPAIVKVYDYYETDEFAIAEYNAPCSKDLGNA
Description: TGF- ? isoforms bind to α2M* with different affinities: TGF ? β2>TGF ? β1 ( active sites of TGF ? β1 and TGF- ? 2 responsible for high-affinity binding to ? 2M* are disti from the low-affinity ? 2M* binding site in TGF- ? 3 (19). To determine if fatty acids differentially affect the binding of TGF- ? isoforms to ? 2M*, the effects of various concentrations of arachidonic acid and myristic acid on complex formation of ^125I-labeled TGF ? β isoforms and ? 2M were determined*. […] It inhibited 30% of the complex form . α2M* and TGF ? β2 and TGF ? β3 at 100 and >250 μM, respectively. Arachidon polyunsaturated fatty acid, was a stronger inhibitor of complex formation of ? 2M* and TGF-.β2/TGF ? β3. It inhibited 50% of the complex formation of ? 2M* and ^125I-TGF- ? 2 at 50 μM (FIG. 3A). The observation that myristic acid and arachidonic acid inhibited complex formation of ^125I-TGF- ? […] 2M* complexes in the reaction mixtures were then analyzed by 7.5% SDS-PAGE and autoradiography.
Complex formation of ^125I-TGF-β and ? […] After 30 min at room temperature, the complex formation of ^125I-TGF- ? and. α2M* was determined by 5% non-denaturing polyacrylamide gel electrophoresis (PAGE) or by 7.5% SDS-PAGE following cross-linking by 0.6 mM DSS. After electrophoresis, the gel was stained with Coomassie blue and analyzed by autoradiography. […] 2M* was quantified using a PhosphoImager (Fuji).

TGF-β1-α2M* complex = target: T2, TGF-β1-α2M* complex (Homo sapiens, UniProt P01023); assay: Inhibition of 125I-TGF-β1 and α2M* complex formation (5% non-denaturing PAGE, autoradiography); assay type: binding; settings: ~1 nM 125I-TGF-β1, 10 μg α2M* in 0.05 ml, 30 min room temperature, non-denaturing PAGE; read-out: IC50 for inhibiting complex formation between TGF-β1 and α2M*
T2 construct: was purified from pooled citrate-treate human plasma; from tissue; host or cells: pooled citrate-treated human plasma
T2 sequence (P01023 24-1474): T1 sequence (P01023 24-1474)
Description: Saturated and unsaturated fatty acids are present in plasma and tissues (25,26). The effects of various concentrations of saturated fatty acids on the formation of complexes between ^125I-TGF ? β1 and ? 2M* were examined. ^125I-TGF- ? 1 (1 nM) was incubated μg/ml) in the presence of various concentrations of n-caprylic acid ([…]), lauric acid (12 carbon atoms), myristic acid (14 carbon atoms), palmitic acid (16 carbon atoms) and stearic acid (18 carbon atoms). After 30 min at room temperature, the reaction mixture was analyzed by 5% non-denaturing PAGE and autoradiography, a standard method form determining complex formation between TGF-β and α2M* (12). […] At 100 μM, it inhibited 20% of the complex formation between TGF ? β1 and α2M*. Esterification consistently abolished the inhibitory activities of the fatty acids.
Complex formation of ^125I-TGF-β and ? 2M*—The reaction mixture contained 10 μg of . α2M*, ˜1 nM of ^125I-TGF- ? 1, ^125I-TGF ? β2 or ^125I-TGF ? acids (dissolved in 100% ethanol) in 0.05 ml of 50 mM HEPES-NaOH buffer, pH 7.4. The final concentration of ethanol in the reaction mixture was 0.5%. These fatty acids and fatty acid derivatives were soluble under the experimental conditions. After 30 min at room temperature, the complex formation of ^125I-TGF- ? and. α2M* was determined by 5% non-denaturing polyacrylamide gel electrophoresis (PAGE) or by 7.5% SDS-PAGE following cross-linking by 0.6 mM DSS. After electrophoresis, the gel was stained with Coomassie blue and analyzed by autoradiography. The ^125I-TGF- ? - ? 2M* complex which co-migrated with free ? 2M* was quantified using a PhosphoImager (Fuji).

CCCCC/C=C\C/C=C\C/C=C\C/C=C\CCCC(=O)O [arachidonic acid]
blocking of cross-linked 125I-TGF-β isoform-α2M* complex formation [1]: blocked complex formation | IC50 (TGF-β1-α2M* complex): 7.8 ± 1.4 µM
